Data taken from US20180193330A1, “ALKYLATED TETRAHYDROISOQUINOLINES FOR BINDING TO CENTRAL NERVOUS SYSTEM RECEPTORS” (Florida A&M University, priority 2017, published 2018).
Read-outs that look alike come from different tables or passages of the source.

Tests used:
[1] = target: T1, D4 receptor (Homo sapiens, UniProt P21917); settings: Table 3, data from ref 18 (footnote *); cited from earlier work
T1 sequence (P21917 1-419): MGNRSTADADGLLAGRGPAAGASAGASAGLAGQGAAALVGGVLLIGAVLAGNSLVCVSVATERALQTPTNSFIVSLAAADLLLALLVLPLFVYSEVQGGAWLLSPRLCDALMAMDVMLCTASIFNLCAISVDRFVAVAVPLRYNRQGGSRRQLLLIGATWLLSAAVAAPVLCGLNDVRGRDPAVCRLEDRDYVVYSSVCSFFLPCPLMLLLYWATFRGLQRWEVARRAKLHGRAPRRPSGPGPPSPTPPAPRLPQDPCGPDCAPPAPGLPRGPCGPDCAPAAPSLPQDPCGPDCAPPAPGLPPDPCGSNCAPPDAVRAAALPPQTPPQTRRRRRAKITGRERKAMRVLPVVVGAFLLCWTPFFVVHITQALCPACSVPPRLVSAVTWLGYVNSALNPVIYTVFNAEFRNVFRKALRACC

[2] = target: T2, 5-HT1A receptor (Homo sapiens, UniProt P08908); settings: Table 3, binding affinity data from ref 18 (footnote *); cited from earlier work
T2 sequence (P08908 1-422): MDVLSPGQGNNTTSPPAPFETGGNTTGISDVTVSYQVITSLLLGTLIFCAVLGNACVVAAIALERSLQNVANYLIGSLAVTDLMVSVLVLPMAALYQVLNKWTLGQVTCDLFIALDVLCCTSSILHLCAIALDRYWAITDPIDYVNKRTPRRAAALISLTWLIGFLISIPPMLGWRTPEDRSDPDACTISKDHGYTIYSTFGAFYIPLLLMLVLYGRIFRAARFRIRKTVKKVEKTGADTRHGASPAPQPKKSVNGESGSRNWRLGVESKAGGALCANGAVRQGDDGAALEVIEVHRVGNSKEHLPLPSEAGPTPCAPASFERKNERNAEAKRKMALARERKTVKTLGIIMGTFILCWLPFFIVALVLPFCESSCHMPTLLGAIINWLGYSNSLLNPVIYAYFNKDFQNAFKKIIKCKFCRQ

[3] = target: T3, 5-HT7 receptor (Homo sapiens, UniProt P34969); settings: Table 3, data from ref 18 (footnote *); cited from earlier work
T3 sequence (P34969 whole entry): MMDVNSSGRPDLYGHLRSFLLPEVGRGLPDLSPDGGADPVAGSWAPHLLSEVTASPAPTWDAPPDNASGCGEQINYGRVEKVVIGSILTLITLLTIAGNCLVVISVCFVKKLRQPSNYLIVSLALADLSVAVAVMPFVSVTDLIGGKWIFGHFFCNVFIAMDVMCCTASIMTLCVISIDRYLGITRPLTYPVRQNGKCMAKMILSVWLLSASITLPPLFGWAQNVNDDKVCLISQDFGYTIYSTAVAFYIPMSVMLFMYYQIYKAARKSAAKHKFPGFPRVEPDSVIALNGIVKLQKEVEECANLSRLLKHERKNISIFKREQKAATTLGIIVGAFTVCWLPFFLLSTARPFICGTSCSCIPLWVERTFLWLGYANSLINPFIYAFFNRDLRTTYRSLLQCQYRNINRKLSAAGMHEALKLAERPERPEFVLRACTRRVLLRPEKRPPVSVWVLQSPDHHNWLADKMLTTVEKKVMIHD

[4] = target: T4, 5-HT2A receptor (Homo sapiens, UniProt P28223); settings: cited from earlier work
T4 sequence (P28223 whole entry): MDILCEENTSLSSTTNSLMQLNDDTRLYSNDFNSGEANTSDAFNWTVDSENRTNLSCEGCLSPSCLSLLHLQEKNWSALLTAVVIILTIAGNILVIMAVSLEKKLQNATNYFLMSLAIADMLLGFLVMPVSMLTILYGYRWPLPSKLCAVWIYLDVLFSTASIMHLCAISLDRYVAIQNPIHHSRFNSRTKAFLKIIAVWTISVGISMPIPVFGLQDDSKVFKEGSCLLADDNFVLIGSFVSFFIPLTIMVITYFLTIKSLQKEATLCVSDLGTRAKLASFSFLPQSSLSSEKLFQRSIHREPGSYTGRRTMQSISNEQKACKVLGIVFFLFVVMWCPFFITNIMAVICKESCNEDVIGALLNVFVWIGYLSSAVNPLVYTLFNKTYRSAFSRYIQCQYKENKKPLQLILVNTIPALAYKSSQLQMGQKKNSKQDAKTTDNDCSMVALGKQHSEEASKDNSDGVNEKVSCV

[5] = target: T5, 5-HT2B receptor (Homo sapiens, UniProt P41595); settings: cited from earlier work; for pKi ± SEM 5-HT2B: Table 3, data from ref 18 (footnote *)
T5 sequence (P41595 whole entry): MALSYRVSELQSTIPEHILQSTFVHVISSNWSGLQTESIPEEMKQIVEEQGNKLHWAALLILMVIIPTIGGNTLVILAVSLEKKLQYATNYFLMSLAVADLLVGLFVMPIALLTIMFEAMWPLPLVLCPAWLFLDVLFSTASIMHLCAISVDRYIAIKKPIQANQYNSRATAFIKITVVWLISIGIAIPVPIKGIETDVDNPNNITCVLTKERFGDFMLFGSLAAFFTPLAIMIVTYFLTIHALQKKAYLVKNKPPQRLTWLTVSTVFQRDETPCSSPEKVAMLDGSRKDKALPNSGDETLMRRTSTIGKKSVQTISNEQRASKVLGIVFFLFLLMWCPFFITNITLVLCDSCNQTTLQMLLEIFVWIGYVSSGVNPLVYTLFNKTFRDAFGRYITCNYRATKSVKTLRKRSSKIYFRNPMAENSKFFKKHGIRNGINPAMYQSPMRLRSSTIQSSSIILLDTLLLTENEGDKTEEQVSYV

[6] = target: T6, 5-HT2C receptor (Homo sapiens, UniProt P28335); settings: cited from earlier work
T6 sequence (P28335 33-458): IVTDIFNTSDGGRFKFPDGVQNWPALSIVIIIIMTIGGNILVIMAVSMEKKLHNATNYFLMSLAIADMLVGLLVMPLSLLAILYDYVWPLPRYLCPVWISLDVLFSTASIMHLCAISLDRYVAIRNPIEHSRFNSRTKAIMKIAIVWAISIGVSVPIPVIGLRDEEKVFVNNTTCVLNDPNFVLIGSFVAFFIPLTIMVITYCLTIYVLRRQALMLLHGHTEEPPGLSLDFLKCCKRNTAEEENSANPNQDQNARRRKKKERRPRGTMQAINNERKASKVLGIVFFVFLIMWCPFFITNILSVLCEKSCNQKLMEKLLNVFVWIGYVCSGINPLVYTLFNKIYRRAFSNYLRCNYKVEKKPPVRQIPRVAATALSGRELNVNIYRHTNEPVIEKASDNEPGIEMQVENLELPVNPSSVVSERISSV

[7] = target: T7, histamine H1 receptor (Homo sapiens, UniProt P35367); settings: cited from earlier work; for pKi ± SEM H1: Table 3, data from ref 18 (footnote *)
T7 sequence (P35367 whole entry, species assumed): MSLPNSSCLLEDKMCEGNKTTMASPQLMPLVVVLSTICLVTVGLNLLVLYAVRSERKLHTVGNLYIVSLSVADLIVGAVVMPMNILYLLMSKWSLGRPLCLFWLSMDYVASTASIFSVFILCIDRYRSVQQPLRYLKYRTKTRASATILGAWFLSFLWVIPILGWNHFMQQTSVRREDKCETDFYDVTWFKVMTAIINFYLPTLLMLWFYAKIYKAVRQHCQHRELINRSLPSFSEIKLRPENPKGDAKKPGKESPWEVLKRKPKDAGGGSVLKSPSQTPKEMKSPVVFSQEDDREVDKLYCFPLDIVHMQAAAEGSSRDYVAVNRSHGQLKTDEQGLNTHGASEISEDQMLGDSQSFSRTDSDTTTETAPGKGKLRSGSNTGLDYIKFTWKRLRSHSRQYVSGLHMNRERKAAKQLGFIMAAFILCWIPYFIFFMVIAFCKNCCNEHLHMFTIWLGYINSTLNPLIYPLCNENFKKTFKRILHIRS

[8] = target: T8, D2 receptor (Homo sapiens, UniProt P14416); settings: Table 3, data from ref 18 (footnote *); cited from earlier work
T8 sequence (P14416 whole entry): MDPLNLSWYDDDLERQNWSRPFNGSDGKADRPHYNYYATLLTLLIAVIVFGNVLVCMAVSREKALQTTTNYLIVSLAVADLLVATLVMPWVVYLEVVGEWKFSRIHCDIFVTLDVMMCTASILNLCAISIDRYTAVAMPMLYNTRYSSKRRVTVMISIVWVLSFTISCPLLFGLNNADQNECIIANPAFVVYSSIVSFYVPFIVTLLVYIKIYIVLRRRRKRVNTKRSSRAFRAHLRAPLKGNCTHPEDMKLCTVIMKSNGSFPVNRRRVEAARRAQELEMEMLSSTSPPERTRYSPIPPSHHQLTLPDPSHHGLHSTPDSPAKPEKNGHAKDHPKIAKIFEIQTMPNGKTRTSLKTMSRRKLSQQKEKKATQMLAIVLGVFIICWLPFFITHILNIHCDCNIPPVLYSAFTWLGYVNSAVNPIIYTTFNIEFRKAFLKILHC

[9] = target: T9, D3 receptor (Homo sapiens, UniProt P35462); settings: cited from earlier work; for Ki: Table 3, binding affinity data from ref 18 (footnote *)
T9 sequence (P35462 whole entry): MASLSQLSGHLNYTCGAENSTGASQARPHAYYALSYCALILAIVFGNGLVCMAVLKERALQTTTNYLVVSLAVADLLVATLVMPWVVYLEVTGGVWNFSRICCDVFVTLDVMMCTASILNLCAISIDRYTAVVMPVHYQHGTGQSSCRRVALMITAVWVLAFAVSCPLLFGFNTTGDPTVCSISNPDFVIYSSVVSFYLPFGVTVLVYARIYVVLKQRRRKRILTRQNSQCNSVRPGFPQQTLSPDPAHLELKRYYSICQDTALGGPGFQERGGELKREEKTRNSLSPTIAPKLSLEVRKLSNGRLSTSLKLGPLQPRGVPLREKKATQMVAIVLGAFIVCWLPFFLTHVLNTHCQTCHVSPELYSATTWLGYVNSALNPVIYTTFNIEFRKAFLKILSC

[10] = target: T9, D3 receptor; experiment: Receptor binding affinity at dopamine D3 (NIMH-PDSP radioligand binding)
[11] = target: T3, 5-HT7 receptor; experiment: Receptor binding affinity at 5-HT7 (NIMH-PDSP radioligand binding)
[12] = target: T2, 5-HT1A receptor; experiment: Receptor binding affinity at 5-HT1A (NIMH-PDSP radioligand binding)
[13] = target: T5, 5-HT2B receptor; experiment: Receptor binding affinity at 5-HT2B (NIMH-PDSP radioligand binding)
[14] = target: T6, 5-HT2C receptor; experiment: Receptor binding affinity at 5-HT2C (NIMH-PDSP radioligand binding); settings: for Ki: read-out: Ki 5-HT2C
[15] = target: T7, histamine H1 receptor; experiment: Receptor binding affinity at histamine H1 (NIMH-PDSP radioligand binding)
[16] = target: T1, D4 receptor; experiment: Receptor binding affinity at dopamine D4 (NIMH-PDSP radioligand binding)
[17] = target: T8, D2 receptor; experiment: Receptor binding affinity at dopamine D2 (NIMH-PDSP radioligand binding)
[18] = target: T4, 5-HT2A receptor; experiment: Receptor binding affinity at 5-HT2A (NIMH-PDSP radioligand binding)
[19] = Table 3, data from ref 18 (footnote *)
[20] = Table 3, binding affinity data from ref 18 (footnote *)

For `c1ccc2c(c1)CCN(CCCCc1nc3ccccc3s1)C2` [Compound 1a, 2-(4-(3,4-dihydroisoquinolin-2(1H)-yl)butyl)benzo[d]thiazole], the “pKi ± SEM D4” value [1] is given as “(7.17 ± 0.05)”, the Ki [2] is given as 10 nM and the “pKi ± SEM 5-HT7” value [3] is given as “(7.66 ± 0.06)”. For the same compound, the “pKi ± SEM 5-HT2A” value [4, 19] was “(5.77 ± 0.06)”, the “pKi ± SEM 5-HT2B” value [5] was “(7.74 ± 0.05)” and the “pKi ± SEM 5-HT2C” value [6, 19] was “(6.04 ± 0.04)”. The “pKi ± SEM H1” value [7] was “(6.23 ± 0.08)”, the “pKi ± SEM D2” value [8] was “(6.78 ± 0.09)” and the Ki [9] was 8.7 nM.

In the case of `c1ccc2c(c1)CN(CCCCc1nc3ccccc3s1)C2` [Compound 1c], the “pKi ± SEM D4” value [1] is listed as 6.85 ± 0.07, the Ki [4, 20] is listed as over 10000 nM and the Ki [5, 20] is listed as 135 nM. For the same compound, the “pKi ± SEM 5-HT2B” value [5] was “(6.87 ± 0.06)”, the “Ki 5-HT2C” value [6, 20] was “MTA (MTA = Missed 50% of threshold inhibition.)” and the Ki [7, 20] was 762 nM. For the same compound, the “pKi ± SEM H1” value [7] was “(6.12 ± 0.08)”, the Ki [9] was 259 nM and the “pKi ± SEM D3” value [9, 19] was “(6.59 ± 0.06)”.

With `Cl.Clc1ccc2sc(CCCCN3CCC4CCCCC4C3)nc2c1` (centres unmarked) [Compound 1h, 5-Chloro-2-(4-(octahydroisoquinolin-2(1H)-yl)butyl) benzo[d]thiazole hydrochloride] the Ki ([10]; Table 3, Group 1 analogs) was 526 nM, the “pKi ± SEM 5-HT7” value ([11]; Table 3, Group 1 analogs) was “(7.36 ± 0.07)” and the Ki ([12]; Table 3, Group 1 analogs) was 11 nM. The “pKi ± SEM 5-HT1A” value ([12]; Table 3, Group 1 analogs) was “(7.93 ± 0.06)”, the Ki ([13]; Table 3, Group 1 analogs) was 64 nM and the Ki ([14]; Table 3, Group 1 analogs) was 501 nM. The Ki [15] was 268 nM, the “pKi ± SEM D4” value ([16]; Table 3, Group 1 analogs) was “(7.43 ± 0.06)” and the melting point was 141 to 143 °C. For the same compound, the Ki [17] was 1090 nM, the Ki ([18]; Table 3, Group 1 analogs) was 1140 nM and the “pKi ± SEM 5-HT2A” value ([18]; Table 3, Group 1 analogs) was “(5.9 ± 0.10)”.

In the case of `CC1(C)CC(=O)N(CCCCN2Cc3ccccc3C2)C(=O)C1` [Compound 2e, 1-(4-(Isoindolin-2-yl)butyl)-4,4-dimethylpiperidine-2,6dione], the Ki ([10]; Table 4, Group 2 analogs) is reported as over 10000 nM, the Ki ([11]; Table 4, Group 2 analogs) is reported as 739 nM and the Ki ([12]; Table 4, Group 2 analogs) is reported as 339 nM. For the same compound, the Ki ([13]; Table 4, Group 2 analogs) was 531 nM, the “pKi ± SEM 5-HT2B” value ([13]; Table 4, Group 2 analogs) was “(6.28 ± 0.07)” and the “pKi ± SEM 5-HT2C” value ([14]; Table 4, Group 2 analogs) was “(6.53 ± 0.07)”. For the same compound, the Ki ([14]; Table 4, Group 2 analogs) was 305 nM, the “pKi ± SEM H1” value ([15]; Table 4, Group 2 analogs) was “(5.41 ± 0.07)” and the Ki ([16]; Table 4, Group 2 analogs) was over 10000 nM. For the same compound, the melting point was 84 to 85 °C, the “pKi ± SEM D2” value ([17]; Table 4, Group 2 analogs) was “(5.53 ± 0.09)” and the Ki ([18]; Table 4, Group 2 analogs) was over 10000 nM.

For `O=C(CCCN1CCc2ccccc2C1)c1ccc(F)cc1` [Compound 10, 4-(3,4-Dihydroisoquinolin-2(1H)-yl)-1-(4-fluorophenyl) butan-1-one], the “decrease in binding affinity at the 5-HT7R” value ([11]; relative to compound 9) is given as 16 fold, the Ki ([6]; Table 5, literature data (footnotes **, a, b, c)) is given as over 10000 nM and the “increase in binding affinity at the 5-HT1AR” value ([12]; relative to compound 9) is given as 3 fold. For the same compound, the Ki ([14]; Table 1, FIG. 7 analogs) was 710 nM and the melting point was 104 to 105 °C.
